Data from ChEMBL document CHEMBL4028801, “A multifactorial approach to hepatobiliary transporter assessment enables improved therapeutic compound development” (Toxicol Sci, 2013).
One block for each molecule: values may come before it. Non-standard residues stand in square brackets, D forms with d. Residues, ends and D or L forms follow the SMILES beside them. dPhe(4-Cl) = N[C@H](Cc1ccc(Cl)cc1)C(=O)O; d2Nal = N[C@H](Cc1ccc2ccccc2c1)C(=O)O; dCit = NC(=O)NCCC[C@@H](N)C(=O)O; d3Pal = N[C@H](Cc1cccnc1)C(=O)O

Experiments:
Homo sapiens [1] = test: Ratio of drug concentration at steady state in human at 100 mg, po after 24 hrs to IC50 for human BSEP overexpressed in Sf9 insect cells; format: ADME, organism-based; settings: in vivo
[2] = target: ATP-binding cassette sub-family C member 3 (Homo sapiens, UniProt O15438); test: Inhibition of human MRP3 overexpressed in Sf9 insect cell membrane vesicles assessed as uptake of [3H]-estradiol-17beta-D-glucuronide in presence of ATP and GSH measured after 10 mins by membrane vesicle transport assay; format: ADME, cell-based
Chain of ATP-binding cassette sub-family C member 3 (O15438 whole entry): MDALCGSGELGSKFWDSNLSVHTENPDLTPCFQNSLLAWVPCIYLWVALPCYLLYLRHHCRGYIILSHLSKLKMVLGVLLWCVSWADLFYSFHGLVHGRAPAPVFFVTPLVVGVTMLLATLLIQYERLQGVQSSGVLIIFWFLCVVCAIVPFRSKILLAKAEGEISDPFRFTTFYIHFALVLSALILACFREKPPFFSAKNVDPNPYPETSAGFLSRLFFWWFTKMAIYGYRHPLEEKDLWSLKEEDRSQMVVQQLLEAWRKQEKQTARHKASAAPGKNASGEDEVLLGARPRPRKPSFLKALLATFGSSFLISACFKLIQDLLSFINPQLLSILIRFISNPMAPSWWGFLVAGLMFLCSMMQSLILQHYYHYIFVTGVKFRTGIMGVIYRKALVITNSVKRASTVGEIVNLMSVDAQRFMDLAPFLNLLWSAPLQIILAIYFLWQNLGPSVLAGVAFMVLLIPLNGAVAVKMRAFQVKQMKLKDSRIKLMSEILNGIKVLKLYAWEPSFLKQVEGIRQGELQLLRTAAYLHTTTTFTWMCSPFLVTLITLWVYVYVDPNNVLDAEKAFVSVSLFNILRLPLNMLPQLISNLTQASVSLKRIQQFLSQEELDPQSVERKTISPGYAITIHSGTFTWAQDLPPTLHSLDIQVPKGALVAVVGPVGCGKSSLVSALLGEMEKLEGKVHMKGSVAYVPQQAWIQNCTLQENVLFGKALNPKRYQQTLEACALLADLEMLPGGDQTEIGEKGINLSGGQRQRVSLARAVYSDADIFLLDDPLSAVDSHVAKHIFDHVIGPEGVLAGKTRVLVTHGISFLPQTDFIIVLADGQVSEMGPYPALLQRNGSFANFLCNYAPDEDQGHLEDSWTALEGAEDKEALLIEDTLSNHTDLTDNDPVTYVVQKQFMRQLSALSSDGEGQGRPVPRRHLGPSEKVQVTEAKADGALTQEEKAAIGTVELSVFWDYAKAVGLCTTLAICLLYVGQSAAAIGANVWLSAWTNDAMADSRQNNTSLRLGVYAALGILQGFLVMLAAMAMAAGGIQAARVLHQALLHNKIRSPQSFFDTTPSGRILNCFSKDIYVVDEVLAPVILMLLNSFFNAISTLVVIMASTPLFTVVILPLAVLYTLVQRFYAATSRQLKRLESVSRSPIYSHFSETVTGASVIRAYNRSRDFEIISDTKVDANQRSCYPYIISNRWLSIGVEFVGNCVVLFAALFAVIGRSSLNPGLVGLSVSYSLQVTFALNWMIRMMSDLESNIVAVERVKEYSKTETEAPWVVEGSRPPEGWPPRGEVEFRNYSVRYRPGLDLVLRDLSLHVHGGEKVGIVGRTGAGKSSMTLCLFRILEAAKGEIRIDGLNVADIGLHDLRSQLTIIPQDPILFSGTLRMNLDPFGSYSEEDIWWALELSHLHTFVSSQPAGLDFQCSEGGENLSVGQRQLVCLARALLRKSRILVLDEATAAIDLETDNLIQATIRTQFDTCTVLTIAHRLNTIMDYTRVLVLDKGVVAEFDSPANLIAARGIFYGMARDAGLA

[3] = AUC in human at 100 mg, po QD after 24 hrs; format: ADME, organism-based; design: time < 24 hr, dose 100 mg, route oral; settings: in vivo
[4] = target: ATP-binding cassette sub-family C member 2 (Homo sapiens, UniProt Q92887); test: Inhibition of human MRP2 overexpressed in Sf9 cell membrane vesicles assessed as uptake of [3H]-estradiol-17beta-D-glucuronide in presence of ATP and GSH measured after 20 mins by membrane vesicle transport assay
Chain of ATP-binding cassette sub-family C member 2 (Q92887 whole entry): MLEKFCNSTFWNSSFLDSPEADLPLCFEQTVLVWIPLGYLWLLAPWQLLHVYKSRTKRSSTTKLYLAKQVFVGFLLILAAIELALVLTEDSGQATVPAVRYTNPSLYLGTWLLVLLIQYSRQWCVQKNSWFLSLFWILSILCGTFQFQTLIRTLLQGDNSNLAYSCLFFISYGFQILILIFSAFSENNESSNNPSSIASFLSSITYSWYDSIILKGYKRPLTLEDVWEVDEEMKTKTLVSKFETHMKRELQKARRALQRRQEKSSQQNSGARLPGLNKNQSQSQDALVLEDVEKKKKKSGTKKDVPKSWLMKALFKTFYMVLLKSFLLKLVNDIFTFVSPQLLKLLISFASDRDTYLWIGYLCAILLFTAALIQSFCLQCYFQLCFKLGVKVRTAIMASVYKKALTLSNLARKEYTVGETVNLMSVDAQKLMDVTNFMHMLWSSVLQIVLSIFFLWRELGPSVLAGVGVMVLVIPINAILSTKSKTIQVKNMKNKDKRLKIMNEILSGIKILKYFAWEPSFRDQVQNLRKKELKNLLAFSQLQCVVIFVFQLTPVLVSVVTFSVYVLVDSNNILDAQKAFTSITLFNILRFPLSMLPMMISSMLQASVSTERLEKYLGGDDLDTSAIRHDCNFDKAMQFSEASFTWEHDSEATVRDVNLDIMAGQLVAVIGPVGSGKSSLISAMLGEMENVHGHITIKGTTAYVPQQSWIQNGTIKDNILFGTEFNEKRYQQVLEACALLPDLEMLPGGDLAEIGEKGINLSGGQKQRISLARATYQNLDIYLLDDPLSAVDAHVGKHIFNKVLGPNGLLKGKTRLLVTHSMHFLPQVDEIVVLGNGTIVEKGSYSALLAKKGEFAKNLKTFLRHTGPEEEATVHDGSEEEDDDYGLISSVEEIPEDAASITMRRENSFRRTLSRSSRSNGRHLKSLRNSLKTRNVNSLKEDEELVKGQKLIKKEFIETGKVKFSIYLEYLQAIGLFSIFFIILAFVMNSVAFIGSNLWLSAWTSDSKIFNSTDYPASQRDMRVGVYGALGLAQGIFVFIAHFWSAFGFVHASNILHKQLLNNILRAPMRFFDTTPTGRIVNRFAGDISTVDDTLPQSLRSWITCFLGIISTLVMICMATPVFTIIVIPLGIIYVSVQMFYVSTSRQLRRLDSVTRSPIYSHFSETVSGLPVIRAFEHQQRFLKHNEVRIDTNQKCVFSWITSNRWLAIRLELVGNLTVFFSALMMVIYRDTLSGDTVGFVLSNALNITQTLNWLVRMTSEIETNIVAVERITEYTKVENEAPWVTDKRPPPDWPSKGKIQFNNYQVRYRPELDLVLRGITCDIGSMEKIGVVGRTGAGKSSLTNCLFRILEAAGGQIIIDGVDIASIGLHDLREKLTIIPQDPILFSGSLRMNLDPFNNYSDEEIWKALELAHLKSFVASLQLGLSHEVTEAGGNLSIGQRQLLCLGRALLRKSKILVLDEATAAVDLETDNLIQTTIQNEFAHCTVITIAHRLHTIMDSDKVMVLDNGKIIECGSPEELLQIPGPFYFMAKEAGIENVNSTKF

Bile salt export pump = Bile salt export pump (Homo sapiens, UniProt O95342); test: Inhibition of human BSEP overexpressed in Sf9 cell membrane vesicles assessed as uptake of [3H]-taurocholate in presence of ATP measured after 15 to 20 mins by membrane vesicle transport assay; format: ADME, cell-based
Chain of Bile salt export pump (O95342 whole entry): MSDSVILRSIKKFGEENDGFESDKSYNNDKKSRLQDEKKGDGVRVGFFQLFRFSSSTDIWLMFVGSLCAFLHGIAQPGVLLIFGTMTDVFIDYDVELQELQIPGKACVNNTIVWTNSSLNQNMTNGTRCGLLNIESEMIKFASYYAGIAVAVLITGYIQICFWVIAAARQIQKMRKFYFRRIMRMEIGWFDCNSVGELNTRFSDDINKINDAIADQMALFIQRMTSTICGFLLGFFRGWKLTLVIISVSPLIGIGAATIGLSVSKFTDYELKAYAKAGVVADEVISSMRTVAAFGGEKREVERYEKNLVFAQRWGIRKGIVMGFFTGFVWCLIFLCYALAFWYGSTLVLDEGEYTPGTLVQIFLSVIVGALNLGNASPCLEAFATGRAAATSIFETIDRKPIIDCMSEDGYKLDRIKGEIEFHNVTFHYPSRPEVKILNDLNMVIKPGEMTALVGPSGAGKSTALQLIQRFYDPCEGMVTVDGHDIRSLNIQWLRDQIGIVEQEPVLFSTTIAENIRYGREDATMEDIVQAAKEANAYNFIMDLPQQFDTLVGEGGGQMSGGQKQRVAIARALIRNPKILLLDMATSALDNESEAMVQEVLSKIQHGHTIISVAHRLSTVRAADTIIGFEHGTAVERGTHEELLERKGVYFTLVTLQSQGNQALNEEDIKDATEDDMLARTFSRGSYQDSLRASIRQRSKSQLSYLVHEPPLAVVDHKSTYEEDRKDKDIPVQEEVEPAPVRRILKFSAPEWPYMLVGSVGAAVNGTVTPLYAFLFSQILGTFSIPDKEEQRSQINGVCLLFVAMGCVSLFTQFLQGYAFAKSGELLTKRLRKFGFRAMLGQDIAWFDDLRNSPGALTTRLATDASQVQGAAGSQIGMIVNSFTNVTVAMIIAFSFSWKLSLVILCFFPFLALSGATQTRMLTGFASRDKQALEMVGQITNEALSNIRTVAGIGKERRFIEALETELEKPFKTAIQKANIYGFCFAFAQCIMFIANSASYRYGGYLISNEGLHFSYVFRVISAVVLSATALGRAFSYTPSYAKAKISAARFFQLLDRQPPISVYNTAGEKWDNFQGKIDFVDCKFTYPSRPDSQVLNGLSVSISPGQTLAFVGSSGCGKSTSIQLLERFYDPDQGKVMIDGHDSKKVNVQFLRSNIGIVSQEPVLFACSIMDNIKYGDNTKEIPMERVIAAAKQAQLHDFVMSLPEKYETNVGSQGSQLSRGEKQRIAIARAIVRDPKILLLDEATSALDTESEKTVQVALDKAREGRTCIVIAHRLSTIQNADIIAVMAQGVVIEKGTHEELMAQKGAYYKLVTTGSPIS

[5] = Drug concentration at steady state in human at 100 mg, po QD after 24 hrs; format: ADME, organism-based; settings: in vivo, read-out: Css
[6] = target: T1, ATP-binding cassette sub-family C member 4 (Homo sapiens, UniProt O15439); test: Inhibition of human MRP4 overexpressed in Sf9 cell membrane vesicles assessed as uptake of [3H]-estradiol-17beta-D-glucuronide in presence of ATP and GSH measured after 20 mins by membrane vesicle transport assay; format: ADME, cell-based
T1 sequence (O15439 whole entry): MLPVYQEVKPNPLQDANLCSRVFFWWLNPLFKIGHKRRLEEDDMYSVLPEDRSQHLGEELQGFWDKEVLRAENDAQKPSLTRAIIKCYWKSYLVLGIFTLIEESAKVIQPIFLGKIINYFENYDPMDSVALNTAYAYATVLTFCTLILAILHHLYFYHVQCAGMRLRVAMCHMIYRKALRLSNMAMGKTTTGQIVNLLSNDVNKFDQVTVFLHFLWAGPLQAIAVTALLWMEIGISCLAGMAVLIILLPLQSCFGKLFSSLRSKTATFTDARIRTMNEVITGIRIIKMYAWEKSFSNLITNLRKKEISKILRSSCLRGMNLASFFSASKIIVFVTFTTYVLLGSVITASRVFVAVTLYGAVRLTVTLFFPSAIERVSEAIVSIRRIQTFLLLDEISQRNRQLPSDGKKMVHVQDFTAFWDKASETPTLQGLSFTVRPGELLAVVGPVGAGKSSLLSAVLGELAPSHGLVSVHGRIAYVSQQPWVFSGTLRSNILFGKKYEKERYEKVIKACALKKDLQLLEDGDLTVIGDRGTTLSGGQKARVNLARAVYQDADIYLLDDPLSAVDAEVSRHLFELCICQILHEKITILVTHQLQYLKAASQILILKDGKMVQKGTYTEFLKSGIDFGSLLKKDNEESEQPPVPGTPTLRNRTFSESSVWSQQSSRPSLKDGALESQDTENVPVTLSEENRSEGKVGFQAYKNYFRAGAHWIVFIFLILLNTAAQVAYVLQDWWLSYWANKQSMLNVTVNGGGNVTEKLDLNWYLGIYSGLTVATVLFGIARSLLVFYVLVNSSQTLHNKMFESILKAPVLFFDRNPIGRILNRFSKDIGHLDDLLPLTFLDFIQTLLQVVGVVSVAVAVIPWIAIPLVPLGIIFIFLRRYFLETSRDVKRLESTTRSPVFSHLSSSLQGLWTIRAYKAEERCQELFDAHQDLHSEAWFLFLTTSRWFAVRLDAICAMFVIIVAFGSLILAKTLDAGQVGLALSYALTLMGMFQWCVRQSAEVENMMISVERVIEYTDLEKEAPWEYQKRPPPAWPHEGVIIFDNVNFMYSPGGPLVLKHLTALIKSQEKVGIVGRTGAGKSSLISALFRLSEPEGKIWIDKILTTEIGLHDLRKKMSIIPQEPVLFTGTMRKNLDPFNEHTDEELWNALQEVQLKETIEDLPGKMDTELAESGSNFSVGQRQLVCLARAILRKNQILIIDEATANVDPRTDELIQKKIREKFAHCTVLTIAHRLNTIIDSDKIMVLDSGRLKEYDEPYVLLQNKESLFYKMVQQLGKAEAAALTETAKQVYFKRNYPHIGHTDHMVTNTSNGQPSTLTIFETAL

[7] = Drug concentration at steady state in human at 1.25 to 25 mg, po QD after 24 hrs; format: ADME, organism-based; settings: in vivo, read-out: Css
[8] = AUC in human at 1.25 to 25 mg, po QD after 24 hrs; format: ADME, organism-based; settings: in vivo
Homo sapiens [9] = test: Ratio of drug concentration at steady state in patient with possible depletion of intravascular volume at 25 mg, po QD after 24 hrs to IC50 for human BSEP overexpressed in Sf9 insect cells; format: ADME, organism-based; settings: in vivo
Homo sapiens [10] = test: Ratio of drug concentration at steady state in human at 50 to 100 mg, po after 24 hrs to IC50 for human MRP4 overexpressed in Sf9 insect cells; format: ADME, organism-based; settings: in vivo
[11] = AUC in patient with possible depletion of intravascular volume at 25 mg, po QD after 24 hrs; format: ADME, organism-based; design: time < 24 hr, dose 25 mg, route oral; settings: human, in vivo
Homo sapiens [12] = test: Ratio of drug concentration at steady state in patient with possible depletion of intravascular volume at 25 mg, po QD after 24 hrs to IC50 for human MRP4 overexpressed in Sf9 insect cells; format: ADME, organism-based; settings: in vivo
[13] = Drug concentration at steady state in human at 50 to 100 mg, po QD after 24 hrs; format: ADME, organism-based; settings: in vivo, read-out: Css
[14] = AUC in human at 50 to 100 mg, po QD after 24 hrs; format: ADME, organism-based; settings: in vivo
[15] = Drug concentration at steady state in patient with possible depletion of intravascular volume at 25 mg, po QD after 24 hrs; format: ADME, organism-based; settings: human, in vivo, read-out: Css
Homo sapiens [16] = test: Ratio of drug concentration at steady state in human at 50 to 100 mg, po after 24 hrs to IC50 for human BSEP overexpressed in Sf9 insect cells; format: ADME, organism-based; settings: in vivo
Homo sapiens [17] = test: Ratio of drug concentration at steady state in human at 0.25 mg, sc QD after 24 hrs to IC50 for human BSEP overexpressed in Sf9 insect cells; format: ADME, organism-based; settings: in vivo
[18] = AUC in human at 3 mg, sc administered as single dose during early to mild follicular phase after 24 hrs; format: ADME, organism-based; design: dose 3 mg, time < 24 hr, route subcutaneous; settings: female, in vivo
Homo sapiens [19] = test: Drug concentration at steady state in human 3 mg, sc administered as single dose during early to mild follicular phase after 24 hrs; format: ADME, organism-based; settings: in vivo
Homo sapiens [20] = test: Ratio of drug concentration at steady state in human at 3 mg, sc administered as single dose during early to mild follicular phase after 24 hrs to IC50 for human BSEP overexpressed in Sf9 insect cells; format: ADME, organism-based; settings: in vivo
[21] = AUC in human at 0.25 mg, sc QD after 24 hrs; format: ADME, organism-based; design: dose 0.25 mg, time < 24 hr, route subcutaneous; settings: in vivo
[22] = Drug concentration at steady state in human at 0.25 mg, sc QD after 24 hrs; format: ADME, organism-based; settings: in vivo, read-out: Css
[23] = AUC in human at 200 mg, po QD for 1 to 2 weeks after 24 hrs; format: ADME, organism-based; design: time < 24 hr, dose 200 mg, route oral; settings: in vivo
[24] = Drug concentration at steady state in human at 200 mg, po QD for 1 to 2 weeks after 24 hrs; format: ADME, organism-based; settings: in vivo, read-out: Css
Homo sapiens [25] = test: Ratio of drug concentration at steady state in human at 200 mg, po QD for 1 to 2 weeks after 24 hrs to IC50 for human BSEP overexpressed in Sf9 insect cells; format: ADME, organism-based; settings: in vivo

Structure (SMILES): CCCCc1nc(Cl)c(CO)n1Cc1ccc(-c2ccccc2-c2nnn[n-]2)cc1.[K+] [LOSARTAN POTASSIUM]
IC50 [2]: > 133 µM
Ratio (Homo sapiens [9]): 0.012
Ratio (Homo sapiens [10]): 0.003
AUC at 24 h [11]: 2.42 µM·h
Ratio (Homo sapiens [12]): 0.003
IC50 (Bile salt export pump): 8.53 µM
concentration at 24 h [13]: 101 nM
AUC at 24 h [14]: 2.42 µM·h
concentration at 24 h [15]: 101 nM
Ratio (Homo sapiens [16]): 0.012
IC50 [6]: 34.1 µM

Structure (SMILES): CC(=O)N[C@H](Cc1ccc2ccccc2c1)C(=O)N[C@H](Cc1ccc(Cl)cc1)C(=O)N[C@H](Cc1cccnc1)C(=O)N[C@@H](CO)C(=O)N[C@@H](Cc1ccc(O)cc1)C(=O)N[C@H](CCCNC(N)=O)C(=O)N[C@@H](CC(C)C)C(=O)N[C@@H](CCCNC(=N)N)C(=O)N1CCC[C@H]1C(=O)N[C@H](C)C(N)=O.CC(=O)O [CETRORELIX ACETATE] (Ac-[d2Nal][dPhe(4-Cl)][d3Pal]SY[dCit]LRP[dA]-NH2)
IC50 [2]: > 133 µM
Ratio (Homo sapiens [17]): 0.011
AUC at 24 h [18]: 0.375 µM·h
IC50 [4]: > 133 µM
Css (Homo sapiens [19]): 16 nM
IC50 (Bile salt export pump): 1.47 µM
Ratio (Homo sapiens [20]): 0.011
AUC at 24 h [21]: 0.375 µM·h
concentration at 24 h [22]: 16 nM
IC50 [6]: > 133 µM

Structure (SMILES): CCC(C)n1ncn(-c2ccc(N3CCN(c4ccc(OCC5COC(Cn6cncn6)(c6ccc(Cl)cc6Cl)O5)cc4)CC3)cc2)c1=O (stereo not drawn) [ITRACONAZOLE]
IC50 [2]: > 133 µM
IC50 [4]: > 133 µM
AUC at 24 h [23]: 8.69 µM·h
concentration at 24 h [24]: 362 nM
Ratio (Homo sapiens [25]): 0.02
IC50 [6]: > 133 µM

Now from value to molecule, other results behind:

IC50 [2]: > 133 µM
AUC at 24 h [3]: 17.6 µM·h
IC50 [4]: > 133 µM
concentration at 24 h [5]: 735 nM
IC50 [6]: > 133 µM
Structure (SMILES): COCC(=O)O[C@]1(CCN(C)CCCc2nc3ccccc3[nH]2)CCc2cc(F)ccc2[C@@H]1C(C)C.Cl
Ratio (Homo sapiens [1]): 0.017
IC50 (Bile salt export pump): 43.8 µM

IC50 [2]: 33 µM
concentration at 24 h [7]: 112 nM
AUC at 24 h [8]: 2.69 µM·h
IC50 [6]: 10.5 µM
Structure (SMILES): COc1ccc(Cl)cc1C(=O)NCCc1ccc(S(=O)(=O)NC(=O)NC2CCCCC2)cc1 [GLYBURIDE]
